Measurements as given in US3948899A, “α-Cyanobenzylpiperazines and a process for producing the same” (Fuji Chemical Industry Co., Ltd., priority 1973, dated 1976).
Structures can show the parent of a compound that is named as a salt.

Legend:
mongrel adult dogs [1] = assay: Effects on coronary sinus oxygen tension (thoractomized anesthetized dogs, i.v.); assay type: in vivo, dog
Description: (§1) All experiments were conducted on male and female thoractomized mongrel adult dogs weighing about 10 Kg under anesthesia with pentobarbital sodium.
(§2) Arterial blood pressure was measured by pressure transducer (Nippon Koden MPU-0.5) connected with the cannula inserted from exposed carotid artery into aorta. Aortic blood flow was determined by means of electromagnetic flow meter (Nippon Koden MF-5) mounted at an origin of aorta. Coronary sinus out flow and coronary sinus oxygen tension were assessed by means of electromagnetic flow meter (Nippon Koden MF-5) and Po2 Macro electrode (Beckmann Moder 160-C), respectively, using Morawitz cannulization technique. Heart rate was measured by cardiotachometer (Nippon Koden RT-2) synchronized with systolic blood pressure of aorta.

mongrel adult dogs [2] = assay: Effects on heart rate (thoractomized anesthetized dogs, i.v.); assay type: in vivo, dog
Description: as §1, §2

mongrel adult dogs [3] = assay: Effects on the work done by the left ventricle (thoractomized anesthetized dogs, i.v.); assay type: in vivo, dog
Description: as §1, §2
The work done by the left ventricle is calculated according to the following equation: […]

[4] = Acute toxicity (LD50; per os, mice); assay type: in vivo; conditions: mouse, in vivo, po, dd-0train male mice
Description: 7. Acute Toxicity (See Table 7) Acute toxicity (LD50; per os, mice) was measured in dd-0train male mice.

[5] = prior art; cited from earlier work

COc1ccc(CN2CCNCC2)c(OC)c1OC [Vastarel F, 2,3,4 -trimethoxybenzylpiperazine dihydrochloride]
-35.0%: Changes(%) of basal values, work of left ventricle (mongrel adult dogs [3]; i.v. 2.0 mg/Kg, 1 min)
-1.5%: Changes(%) of basal values, heart rate (mongrel adult dogs [2]; i.v. 0.2 mg/Kg, 5 min) | Changes(%) of basal values, heart rate (mongrel adult dogs [2]; i.v. 2.0 mg/Kg, 10 min) | Changes(%) of basal values, heart rate (mongrel adult dogs [2]; i.v. 2.0 mg/Kg, 20 min) | Changes(%) of basal values, heart rate (mongrel adult dogs [2]; i.v. 2.0 mg/Kg, 30 min) | Changes(%) of basal values, work of left ventricle (mongrel adult dogs [3]; i.v. 0.2 mg/Kg, 10 min) | Changes(%) of basal values, work of left ventricle (mongrel adult dogs [3]; i.v. 0.6 mg/Kg, 5 min) | Changes(%) of basal values, work of left ventricle (mongrel adult dogs [3]; i.v. 0.6 mg/Kg, 25 min)
up to 5%: Increase in oxygen tension (mongrel adult dogs [1]; i.v., between 5 and 20 minutes)
960 mg/kg: LD50 [4]
depressant effect on the heart: Effect on the heart, disadvantage (in words) [5]
+1.0%: Changes(%) of basal values, coronary sinus oxygen tension (mongrel adult dogs [1]; i.v. 0.6 mg/Kg, 5 min)
-2.5%: Changes(%) of basal values, work of left ventricle (mongrel adult dogs [3]; i.v. 0.2 mg/Kg, 5 min) | Changes(%) of basal values, work of left ventricle (mongrel adult dogs [3]; i.v. 0.2 mg/Kg, imm.)
+4.0%: Changes(%) of basal values, work of left ventricle (mongrel adult dogs [3]; i.v. 2.0 mg/Kg, 20 min)
-1.0%: Changes(%) of basal values, heart rate (mongrel adult dogs [2]; i.v. 0.2 mg/Kg, 10 min) | Changes(%) of basal values, heart rate (mongrel adult dogs [2]; i.v. 0.6 mg/Kg, 15 min) | Changes(%) of basal values, heart rate (mongrel adult dogs [2]; i.v. 0.6 mg/Kg, 20 min) | Changes(%) of basal values, heart rate (mongrel adult dogs [2]; i.v. 0.6 mg/Kg, 25 min) | Changes(%) of basal values, heart rate (mongrel adult dogs [2]; i.v. 2.0 mg/Kg, 15 min) | Changes(%) of basal values, heart rate (mongrel adult dogs [2]; i.v. 2.0 mg/Kg, 25 min) | Changes(%) of basal values, work of left ventricle (mongrel adult dogs [3]; i.v. 0.2 mg/Kg, 1 min) | Changes(%) of basal values, work of left ventricle (mongrel adult dogs [3]; i.v. 0.2 mg/Kg, 15 min) | Changes(%) of basal values, work of left ventricle (mongrel adult dogs [3]; i.v. 0.6 mg/Kg, 20 min)
+9.0%: Changes(%) of basal values, coronary sinus oxygen tension (mongrel adult dogs [1]; i.v. 0.6 mg/Kg, imm.) | Changes(%) of basal values, work of left ventricle (mongrel adult dogs [3]; i.v. 2.0 mg/Kg, 5 min)
-2.0%: Changes(%) of basal values, heart rate (mongrel adult dogs [2]; i.v. 2.0 mg/Kg, 1 min) | Changes(%) of basal values, heart rate (mongrel adult dogs [2]; i.v. 2.0 mg/Kg, 5 min) | Changes(%) of basal values, work of left ventricle (mongrel adult dogs [3]; i.v. 0.6 mg/Kg, 1 min) | Changes(%) of basal values, work of left ventricle (mongrel adult dogs [3]; i.v. 0.6 mg/Kg, 10 min) | Changes(%) of basal values, work of left ventricle (mongrel adult dogs [3]; i.v. 0.6 mg/Kg, 15 min)
0%: Changes(%) of basal values, coronary sinus oxygen tension (mongrel adult dogs [1]; i.v. 0.2 mg/Kg, 5 min) | Changes(%) of basal values, coronary sinus oxygen tension (mongrel adult dogs [1]; i.v. 0.2 mg/Kg, 10 min) | Changes(%) of basal values, coronary sinus oxygen tension (mongrel adult dogs [1]; i.v. 0.2 mg/Kg, 15 min) | Changes(%) of basal values, coronary sinus oxygen tension (mongrel adult dogs [1]; i.v. 0.2 mg/Kg, 20 min) | Changes(%) of basal values, coronary sinus oxygen tension (mongrel adult dogs [1]; i.v. 0.2 mg/Kg, 25 min) | Changes(%) of basal values, coronary sinus oxygen tension (mongrel adult dogs [1]; i.v. 0.2 mg/Kg, 30 min) | Changes(%) of basal values, coronary sinus oxygen tension (mongrel adult dogs [1]; i.v. 0.6 mg/Kg, 10 min) | Changes(%) of basal values, coronary sinus oxygen tension (mongrel adult dogs [1]; i.v. 0.6 mg/Kg, 15 min) | Changes(%) of basal values, coronary sinus oxygen tension (mongrel adult dogs [1]; i.v. 0.6 mg/Kg, 20 min) | Changes(%) of basal values, coronary sinus oxygen tension (mongrel adult dogs [1]; i.v. 0.6 mg/Kg, 25 min) | Changes(%) of basal values, coronary sinus oxygen tension (mongrel adult dogs [1]; i.v. 0.6 mg/Kg, 30 min) | Changes(%) of basal values, coronary sinus oxygen tension (mongrel adult dogs [1]; i.v. 2.0 mg/Kg, 30 min) | Changes(%) of basal values, heart rate (mongrel adult dogs [2]; i.v. 0.2 mg/Kg, 1 min) | Changes(%) of basal values, heart rate (mongrel adult dogs [2]; i.v. 0.2 mg/Kg, 15 min) | Changes(%) of basal values, heart rate (mongrel adult dogs [2]; i.v. 0.2 mg/Kg, 20 min) | Changes(%) of basal values, heart rate (mongrel adult dogs [2]; i.v. 0.2 mg/Kg, 25 min) | Changes(%) of basal values, heart rate (mongrel adult dogs [2]; i.v. 0.2 mg/Kg, 30 min) | Changes(%) of basal values, heart rate (mongrel adult dogs [2]; i.v. 0.6 mg/Kg, 10 min) | Changes(%) of basal values, heart rate (mongrel adult dogs [2]; i.v. 0.6 mg/Kg, 30 min) | Changes(%) of basal values, work of left ventricle (mongrel adult dogs [3]; i.v. 0.2 mg/Kg, 20 min) | Changes(%) of basal values, work of left ventricle (mongrel adult dogs [3]; i.v. 0.2 mg/Kg, 25 min) | Changes(%) of basal values, work of left ventricle (mongrel adult dogs [3]; i.v. 0.2 mg/Kg, 30 min) | Changes(%) of basal values, work of left ventricle (mongrel adult dogs [3]; i.v. 0.6 mg/Kg, 30 min)
+2.0%: Changes(%) of basal values, coronary sinus oxygen tension (mongrel adult dogs [1]; i.v. 2.0 mg/Kg, 5 min)
+10.0%: Changes(%) of basal values, work of left ventricle (mongrel adult dogs [3]; i.v. 2.0 mg/Kg, 15 min)
+5.0%: Changes(%) of basal values, coronary sinus oxygen tension (mongrel adult dogs [1]; i.v. 2.0 mg/Kg, 10 min) | Changes(%) of basal values, coronary sinus oxygen tension (mongrel adult dogs [1]; i.v. 2.0 mg/Kg, 15 min)
+3.5%: Changes(%) of basal values, work of left ventricle (mongrel adult dogs [3]; i.v. 2.0 mg/Kg, 25 min)
+5.5%: Changes(%) of basal values, coronary sinus oxygen tension (mongrel adult dogs [1]; i.v. 0.6 mg/Kg, 1 min) | Changes(%) of basal values, heart rate (mongrel adult dogs [2]; i.v. 2.0 mg/Kg, imm.)
+0.5%: Changes(%) of basal values, coronary sinus oxygen tension (mongrel adult dogs [1]; i.v. 2.0 mg/Kg, 25 min) | Changes(%) of basal values, heart rate (mongrel adult dogs [2]; i.v. 0.6 mg/Kg, 1 min) | Changes(%) of basal values, heart rate (mongrel adult dogs [2]; i.v. 0.6 mg/Kg, 5 min)
+3.0%: Changes(%) of basal values, coronary sinus oxygen tension (mongrel adult dogs [1]; i.v. 0.2 mg/Kg, imm.) | Changes(%) of basal values, coronary sinus oxygen tension (mongrel adult dogs [1]; i.v. 2.0 mg/Kg, 20 min) | Changes(%) of basal values, coronary sinus oxygen tension (mongrel adult dogs [1]; i.v. 2.0 mg/Kg, imm.) | Changes(%) of basal values, work of left ventricle (mongrel adult dogs [3]; i.v. 2.0 mg/Kg, 30 min)
+21.5%: Changes(%) of basal values, work of left ventricle (mongrel adult dogs [3]; i.v. 2.0 mg/Kg, 10 min)
-4.5%: Changes(%) of basal values, work of left ventricle (mongrel adult dogs [3]; i.v. 0.6 mg/Kg, imm.)
+1.5%: Changes(%) of basal values, coronary sinus oxygen tension (mongrel adult dogs [1]; i.v. 2.0 mg/Kg, 1 min) | Changes(%) of basal values, heart rate (mongrel adult dogs [2]; i.v. 0.2 mg/Kg, imm.) | Changes(%) of basal values, heart rate (mongrel adult dogs [2]; i.v. 0.6 mg/Kg, imm.)
-90.0%: Changes(%) of basal values, work of left ventricle (mongrel adult dogs [3]; i.v. 2.0 mg/Kg, imm.)
